Reference: patent US20170239334A1, “ANTI-DIARRHEA FORMULATION WHICH AVOIDS ANTIMICROBIAL RESISTANCE” (Anatara Lifesciences Limited, priority 2014, published 2017)

Assay: Trial 2 (France): blinded randomised field trial in weaned piglets, weight gain, feed intake and feed conversion ratio versus in-feed colistin
Assay type: in vivo
Method: Aim: The objective of this study was to compare the feed conversion ratios of piglets administered a single dose of my formulation with in feed colistin, an antibiotic.
Study Outline: This study was a blinded, controlled, randomised field trial comparing three parallel groups of piglets, (n=89 per group): 1. Colistin; 2. My formulation; and 3. No treatment. In this study, whole litters are randomised to receive different treatments, so litters are treated on a whole litter basis.
Weaning on this farm occurs in 2 stages. In stage 1, piglets are weaned by removing the sow (at day-5). Then on day 0, piglets are moved to their weaning pen.
At day-5, Group 1 piglets were administered colistin (9 kg antibiotic premix per Ton of feed) in pre-starter feed for 14 days (day-5 to day 9). The other two groups were administered pre-starter feed alone. On day 0 (5 days post weaning), when piglets are moved to their weaner pens, Group 2 piglets received a single dose of my formulation. Group 3 piglets were untreated.
Analysis: As Per Study 1.

[1] = pre-starter phase (d-5 to d9), 6 pens

Substance: colistin
- Average Daily Weight gain (Post weaning): 377 ± 82 g
- Average Daily Weight gain (Post weaning and fattening (overall)): 664 ± 67 g
- Average Daily Weight gain (Pre-starter (d -5 to d 9)): 167 ± 67 g
- Average Daily Weight gain (Starter): 505 ± 110 g
- Feed Conversion Ratio, Arithmetic Mean [1]: 2.71
- Feed Conversion Ratio, Median [1]: 2.59
- Feed Conversion Ratio, Min-Max [1]: 1.75-3.42
- Feed intake, Arithmetic Mean [1]: 417 g
- Feed intake, Min-Max [1]: 358 to 479 g
